Assay results published in patent US6908934B2, “Therapeutic compounds for treating dyslipidemic conditions” (Merck & Co., Inc., priority 2001, dated 2005).

Tested on: ABCA1 mRNA
Experiment: cells
Format: cell-based
Settings: Primary macrophage, human primary macrophages, 18 h + 6 h treatment, vs DMSO control, read-out: Fold Induction of ABCA1 mRNA (Mean ± SEM)
Protocol: Induction of ABCA1 mRNA Levels
Human Primary Macrophages were used to test the ability of LXR ligands to induce the expression of ABCA1 mRNA. The collection and purification of monocytes and their subsequent differentiation into macrophages by culturing in Teflon jars for 7-9 days was performed according to Wright and Silverstein J. Exp. Med. V156, October 1982 pp 1149-1164. Cells were harvested from the Teflon jars and seeded into appropriate vessels in RPMI1640 plus 12% human serum and antibiotics. Cells were allowed to recover overnight before treatment. Treatment was for 18 hours with the described compounds, followed by a re-application of fresh compounds for an additional 6 hours in DMEM minus Phenol Red with 10% charcoal stripped FCS. The cells were harvested and total RNA prepared using the phenol/guanidine isothiocyanate method as supplied and described by Molecular Research Center, Inc. (TRI REAGENT® Cat. No. TR 118). ABCA1 mRNA levels in the total RNA were measured using the TaqMan® mRNA quantitation system, following protocols published by the manufacturer (Perkin-Elmer). The oligonucleotide PCR primers used to detect ABCA1 were:
The oligonucleotide probe used was:
6FAM-[…]-TAMRA ABCA1 mRNA levels in each sample were normalized to the mRNA levels for the 23 kDa highly basic protein. The oligonucleotide PCR primers used to detect the 23 kDa highly basic protein were: […]

Question: For `CC(C)CC[C@@H](O)[C@@H](C)[C@H]1CC[C@H]2[C@@H]3CC=C4C[C@@H](O)CC[C@]4(C)[C@H]3CC[C@]12C` [22-(R)-hydroxycholesterol], which fold induction at 10 µM is on record?
Answer: 8 ± 1.37
